Assay results from patent publication US11667663B2, “Cyclic dinucleotides as anticancer agents” (BRISTOL-MYERS SQUIBB COMPANY, priority 2017, dated 2023).
Like-named read-outs stand apart in the source and are kept apart here.

Columns and labels:
[1] = biological target: T1, STING WT: His-TVMV-S-hSTING(155-341)-H232R (Homo sapiens, UniProt Q86WV6, H232R); assay: STING HTRF competition binding assay, STING WT; settings: 20 nM His-tagged STING cytoplasmic domain WT, 200 nM fluorescein-labeled cGAMP analog probe, one hour; read-out: HTRF Binding Assays IC50 WT
T1 construct: STING WT: His-TVMV-S-hSTING(155-341)-H232R
Experimental: (§1) Sting HTRF Binding Assays
(§2) A time resolved FRET-based competition binding assay was used to assess test article binding to STING WT and STING AQ. His-tagged STING cytoplasmic domain (WT or AQ) at a concentration of 20 nM was incubated with 2.5 nM Tb-labeled anti-His antibody, test compound, and fluorescein-labeled cGAMP analog probe (BioLog cat. no. C195) at a concentration of 200 nM (STING WT) or 40 nM (STING AQ) in PBS containing 0.005% Tween-20 and 0.1% BSA for one hour. Fluorescence at 495 nm and 520 nm was measured using an EnVision microplate reader to quantify FRET between Tb-labeled anti-His antibody and fluorescein-labeled probe. Background was defined as the signal obtained in the absence of STING protein, and background subtracted FRET ratios were normalized to the maximum signal obtained in the absence of test compound. These values were converted to a percent inhibition. Percent inhibition was determined for test compounds at 11 concentrations. The IC50, defined as the concentration of competing test compound needed to reduce specific binding of the probe by 50%, was calculated using the 4 parameter logistic equation to fit the data

[2] = tested on: IRF pathway; assay: STING THP1 reporter assay, IRF pathway (Lucia luciferase); format: cell-based; settings: THP1-Dual cells, 10% human plasma, luciferase readout, 100% = 100 μM cGAMP, read-out: THP1 Reporter Assays EC50 IRF3
Description: (§3) STING THP1 Reporter Assay Protocol
(§4) THP1-Dual™ cells were derived from the human THP-1 monocyte cell line by stable integration of two inducible reporter constructs. To this end, THP1-Dual™ cells allow the simultaneous study of the NF-κB pathway, by monitoring the activity of SEAP, and the IRF pathway by assessing the activity of a secreted luciferase (Lucia). Both reporter proteins are readily measurable in the cell culture supernatant when using QUANTI-Blue™, a SEAP detection reagent, and QUANTI-Luc™, a luciferase detection reagent.
(§5) THP1-Dual™ cells induce the activation of NF-κB in response to STING agonists. They also trigger the IRF pathway upon stimulation with STING agonists, such as cGAMP. Here, the THP-1-Dual cells were used to assess STING binders for function on the cellular level.
(§6) Serial dilutions of compounds in DMSO were added to low volume 384 well plates at 100 nl/well using an ECHO acoustic dispenser (Labcyte, model 550) to achieve final starting concentration of 100 μM in cell suspension. THP-1 Dual™ STING reporter cells (Invivogen, Dual cells cat #THPD-nfis) were added to the plates with compounds at 15,000 cells in 10 μL per well in RPMI media (Gibco, cat #11875) containing 10% human plasma in a low volume 384-well black wall clear bottom tissue culture plate (Corning, cat #3542) for SEAP assay and low volume solid white plate (Corning, cat #3826) for luciferase assay. One column of the plate was reserved for treatment with cGAMP at 100 μM for 100% activation calculation and one column for no treatment (DMSO only) for baseline activation. Plates were then incubated in 37 OC incubator at 5% CO2 for 20 hours.
(§7) In the SEAP assay, 5 μl of 2× QuantiBlue (Invivogen, cat #Rep-qb2) is added to 384 well black plates seeded with THP1 cells and incubated at 37° C. for 2 hours. Plates were read on the Envision (Perkin Elmer) at 620 nm wavelength (OD620). In the luciferase assay, 5 μl of Quantiluc (Invivogen, Rep-qlc2) is added to white 384 well plates seeded with THP1 cells and read at 5 minutes on the Envision (Perkin Elmer) using a luminescence protocol (RLU). For both cell lines, 100% activation was determined by value (RLU) of THP-1 Dual STING cells stimulated with 100 μM cGAMP (Invivogen, cat #TLRL-NACGA23-5).

[3] = tested on: NF-κB pathway; assay: STING THP1 reporter assay, NF-κB pathway (SEAP); format: cell-based; settings: THP1-Dual cells, 10% human plasma, SEAP readout, 100% = 100 μM cGAMP, read-out: THP1 Reporter Assays EC50 NFkB
Description: as §3, §4, §5, §6, §7

[4] = biological target: T2, STING AQ: His-TVMV-S-hSTING(155-341)-G230A-R293Q (Homo sapiens, UniProt Q86WV6, G230A/H232R/R293Q); assay: STING HTRF competition binding assay, STING AQ; settings: 20 nM His-tagged STING cytoplasmic domain AQ, 40 nM fluorescein-labeled cGAMP analog probe, one hour; read-out: HTRF Binding Assays IC50 AQ
T2 construct: STING AQ: His-TVMV-S-hSTING(155-341)-G230A-R293Q
Experimental: as §1, §2

T1 sequence (Q86WV6 with tags, fused parts or gaps H232R): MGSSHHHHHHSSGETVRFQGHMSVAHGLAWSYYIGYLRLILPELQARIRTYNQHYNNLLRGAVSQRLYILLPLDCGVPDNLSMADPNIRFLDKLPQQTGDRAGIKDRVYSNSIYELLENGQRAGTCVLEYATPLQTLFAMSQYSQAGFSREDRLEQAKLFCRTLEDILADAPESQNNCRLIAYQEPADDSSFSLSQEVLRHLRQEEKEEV
T2 sequence (Q86WV6 with tags, fused parts or gaps G230A/H232R/R293Q): as the sequence (Q86WV6 with tags, fused parts or gaps H232R) above, with G99A, R162Q counted along it

Row | SMILES | IC50 [1] [nM] | EC50 ([2]; 20 hours) [nM] | EC50 ([3]; 20 hours) [nM] | IC50 [4] [nM] | EC50 ([2]; Homo sapiens, THP-1, 20 h) [nM] | EC50 ([3]; Homo sapiens, THP-1, 20 h) [nM]
1 | NC(=O)c1cc([C@@H]2O[C@@H]3COP(=O)(S)O[C@H]4[C@@H](F)[C@H](n5cnc6c(N)ncnc65)O[C@@H]4COP(=O)(S)O[C@@H]2[C@@H]3O)[nH]n1 (single isomer, unassigned) [Example 1-1] | 2400 | > 100000 | > 100000 | 90 |  | 
2 | NC(=O)c1cc([C@@H]2O[C@@H]3COP(=O)(S)O[C@H]4[C@@H](F)[C@H](n5cnc6c(N)ncnc65)O[C@@H]4COP(=O)(S)O[C@@H]2[C@@H]3O)[nH]n1 (single isomer, unassigned) [Example 1-2] | 910 | > 100000 | > 100000 | 30 |  | 
3 | NC(=O)c1cc([C@@H]2O[C@@H]3COP(=O)(S)O[C@H]4[C@@H](F)[C@H](n5cnc6c(N)ncnc65)O[C@@H]4COP(=O)(S)O[C@@H]2[C@@H]3O)[nH]n1 (single isomer, unassigned) [Example 1-3] | 50 | 4000 | 6800 | 10 |  | 
4 | NC(=O)c1cc([C@@H]2O[C@@H]3COP(O)(=S)O[C@H]4[C@@H](F)[C@H](n5cnc6c(N)ncnc65)O[C@@H]4COP(O)(=S)O[C@@H]2[C@@H]3O)[nH]n1 (stereo partly shown) [Example 1-4] | 680 |  |  | 40 | > 100000 | > 100000
